# Measured values published in US20050187302A1, “Method for treatment or prevention of osteoporosis in individuals with high bone turnover” (Hormos Medical Corporation, priority 2004, published 2005).
# Read-outs that look alike come from different tables or passages of the source.
# Columns and labels:
# [1] = tested on: ovariectomized (OVX) female rats; conditions: female rats 2 months old, ospemifene 10 mg/kg, change from baseline, n = 6
# Experimental: (§1) High bone turnover was induced to 2-4 months old female rats by ovariectomy (OVX). Treatment with ospemifene was started at different time points after OVX: 1 day, 1, 2, and 3 months after OVX. Bone resorption was evaluated in short-term by bone specific TRAP5b, which is a […] secreted specifically by osteoclasts, and later by pyridinoline/deoxypyridinoline cross links, which are degradation products of bone collagen and excreted in the urine. Finally, during autopsy, usually after 3 months treatment, trabecular bone mineral density was measured.
# postmenopausal women = postmenopausal women with high bone marker levels at baseline, daily doses 60 mg and 90 mg, 12 weeks
# Experimental: In the clinical trials, bone turnover was evaluated by measuring the levels of bone formation markers in serum and bone resorption markers in urine. Both bone resorption markers e.g. amino terminal telopeptide of type I collagen (U-NTX) and carboxy terminal telopeptide of type I collagen (U-CTX) and formation markers e.g. amino terminal propeptide of type I procollagen (S-PINP) and carboxy terminal propeptide of type I procollagen (S-PICP) are increased in menopause, indicating high bone turnover.
# Most of the women had normal bone marker levels at baseline. […] The upper limit of normal range in women was 84 μg/l for S-PINP, 65 nmol/mmol Crea for U-NTX, 170 μg/l for S-PICP and 680 μg/mmol Crea for U-CTX.
# [2] = tested on: ovariectomized (OVX) female rats; conditions: for Urine total pyridinoline/deoxypyridoline crosslinks, change from base line at 30 days: started one day after OVX, 30 days after OVX; for Trabecular BMD mg/cm^2: 3 months treatment, tibial trabecular bone
# Experimental: as §1
# Female rats, age about 4 months, were ovariectomized. Treatment with vehicle or ospemifene was started at different periods after OVX (from one day to 3 months). The ospemifene doses were 5, 10 or 25 mg/kg and the treatment period was 3 months. Evaluation of the bone occurred by bone mineral density measurement of tibial trabecular bone after the treatment and in some groups also by bone collagen degradation products excreted in the urine.
smiles,measurement,setting,value
OCCOc1ccc(/C(=C(/CCCl)c2ccccc2)c2ccccc2)cc1 [Ospemifene],Change of TRAP5b activity in serum (%) 2 days after OVX,[1],−23.3 ± 5.8%
same,"Change in bone formation and resorption markers (S-PINP, S-PICP, U-CTX, U-NTX) (in words)",postmenopausal women,large decrease both in formation and resorption bone markers
same,"Urine total pyridinoline/deoxypyridoline crosslinks, change from base line at 30 days",[2]; 5 mg/kg daily,55 ± 16
same,Trabecular BMD mg/cm^2,"[2]; 5 mg/kg, treatment started 1 day after OVX, n = 20",374 ± 21 mg/cm^2
same,Trabecular BMD mg/cm^2,"[2]; 10 mg/kg, treatment started 1 month after OVX, n = 8",138 ± 24 mg/cm^2
same,Trabecular BMD mg/cm^2,"[2]; 10 mg/kg, treatment started 2 months after OVX, n = 8",78 ± 14 mg/cm^2
same,Trabecular BMD mg/cm^2,"[2]; 10 mg/kg, treatment started 3 months after OVX, n = 8",78 ± 17 mg/cm^2
same,"Urine total pyridinoline/deoxypyridoline crosslinks, change from base line at 30 days",[2]; 25 mg/kg daily,33 ± 20
same,Trabecular BMD mg/cm^2,"[2]; 25 mg/kg, treatment started 1 day after OVX, n = 20",392 ± 15 mg/cm^2
same,"Excretion of crosslinks, resorption marker (in words)","[2]; first month after OVX, high bone turnover",significantly decreases the excretion of crosslinks
same,Effect on OVX-induced bone loss (in words),"[2]; treatment started 1 month after OVX, bone turnover high",significant beneficial bone effect
same,Effect on OVX-induced bone loss (in words),"[2]; treatment started 2 months after OVX, bone turnover markedly decreased",modest beneficial bone effect
same,Effect on OVX-induced bone loss (in words),"[2]; treatment started 3 months after OVX, bone turnover low",almost lost the benefial bone effect
same,Effect on OVX-induced bone loss (in words),"[2]; treatment started 1 day after OVX, bone turnover very high",able to prevent almost completely the OVX-induced bone loss
